Source: article PMC12767106, “In Situ Assembly of Transformable Monopeptide on Activated Neutrophils Attenuates NETs‐Induced Hepatocellular Carcinoma Metastasis by Disrupting NE Nuclear Translocation” (Advanced Science, 2025)

What was measured:
[1] = Nanoparticle size stability by DLS; assay type: physicochemical; conditions: room temperature, 20 µM, up to 168 h, method and Figure S3 legend name H2O and medium, repeated thrice
[2] = system: mice bearing Hepa1-6/luc tumors; experiment: Biodistribution by in vivo and ex vivo fluorescence imaging; set-up: species or system mouse
Description: To further evaluate the tumor tissue accumulation of FTP‐NPs in vivo, we conducted in vivo biodistribution studies using a murine model. For biodistribution studies, mice bearing Hepa1‐6/luc tumors were treated by NFTP‐NPs and FTP‐NPs via tail vein injection and monitored over time using an In‐Vivo system (IVIS, Figure 4a). After 12, 24, 48, and 168 h, tumors and major organs were collected for ex vivo fluorescence imaging (Figure S16a, Supporting Information). The fluorescence signal of the FTP‐NPs group was still detectable in tumor tissues after more than 3 days and lasted up to 7 days. In situ receptor‐mediated transformation of FTP‐NPs to NE‐fibril clusters in the tumor microenvironment may be responsible for the prolonged preservation of the fluorescence signal in FTP‐NPs‐treated mice, even after 7 days. […] The fluorescence signal of tumor tissue in the FTP‐NPs group at 48 h was 7.1‐fold higher than that in the NFTP‐NPs group (Figure S16b, Supporting Information).
(§1) Submitted to Advanced Science
Figure S16. Time-dependent ex vivo fluorescence (FL) images (a) and quantitative analysis (b) of tumor tissues and major organs (heart (H), liver (Li), spleen (Sp), lung (Lu), kidney (K), intestine(I), muscle (M), skin (Sk), and brain (B)) collected at 12, 24, 48, and 168 h post-injection of NFTP-NPs and FTP-NPs.
Figure S17. Gating strategy for T cell analysis. The tumor-bearing mice from each group were euthanized on day 20 post-treatment. Fifty thousand events were collected for each sample in the study. CD45+ cell counts determined the total T cell number, and CD8+ T cells were then gated within CD3+ T lymphocytes.
Figure S18. Corresponding flow cytometric quantification of CD8+T cells (CD45+CD3+CD8+, n = 3). Data are presented as mean ± s.d., n = 3 independent experiments. Statistical significance was calculated by one-way […]

[3] = system: Hepa1-6/luc liver and lung metastasis; experiment: Liver and lung metastasis model; assay type: in vivo, mouse; conditions: Hepa1-6/luc cells via spleen or tail vein, 300 µM in 200 µL i.v. every two days, 16 days, n = 5
Text: as §1
effector T cells (CD45+CD3+CD8+)/(CD45+CD3+CD4+), tumor cells were stained with anti-CD45-FITC
(Biolegend), anti-CD3ε-PerCP-Cy5.5 (Biolegend), anti-CD4-APC (Biolegend), and anti-CD8a-PE (Biolegend)
antibodies according to the standard protocol. For evaluation of NK cells (CD45+CD3-NK1.1+), tumor cells
were stained with anti-CD45-FITC (Biolegend), anti-CD3-PE (Biolegend) and anti-CD49b-APC (Biolegend)
antibodies and examined using flow cytometry. For MDSCs (CD45+CD11b+Gr-1+) analysis, tumor cells were
stained with anti-CD45-FITC, anti-CD11b-BrilliantViolet-510 (Biolegend), anti -F4/80-PE (Biolegend), and
anti-Gr-1-APC (Biolegend) antibodies for flow cytometry examination (BD FACS Canto SORP, USA). The
software FlowJo V10.6.2 was used for data analysis. To further explore the immunomodulatory effects of FTP-
NPs. Tumor tissues were harvested for immune profiling. Plasma cytokine levels, including IL-6, IL-10, and
TNF-α, were measured using commercially available ELISA kits to assess the immune activation induced by
Experimental liver and lung metastasis model
Six-week-old male C57BL/6J mice (20–25 g) were used to establish liver and lung metastasis models. Hepa1-
6/luc cells (1 × 10^6 cells) were injected into the spleen or tail vein of the mice to induce liver or lung
metastasis, respectively. For the liver metastasis model, Hepa1-6/luc cells were injected into the spleen, allowing
tumor cells to circulate and establish metastases in the liver. For the lung metastasis model, Hepa1-6/luc cells
were injected via the tail vein, leading to the formation of metastases in the lungs. Following cell implantation, […]
euthanized, and metastases were assessed macroscopically. […]
injecting D-Luciferin (150 mg/kg) intraperitoneally, and tumor burden was quantified using the IVIS Spectrum […]
conducted, and metastatic lesions were assessed under an inverted microscope (Axiovert 200, Zeiss, Germany). […]
300 μM per injection) for mice. […] (b) Fluorescence quantized chart […]
experiments. Statistical significance was calculated by one-way ANOVA, *p < 0.050.(c, d) Photographs of lung […]

[4] = tail vein injection, IVIS imaging

Substance: PpIX-GGGAAK-EAIPMSIPPEVK [NFTP-NPs, nanoparticles of the non-fibrillar transformable control peptide NFTP]
- size change in PBS and FBS solutions within 168 h [1]: did not change significantly
- fluorescence signal in major organs by 72 h [2, 4]: essentially undetectable
- liver and lung metastasis (bioluminescent signals, number of metastatic foci) [3]: obvious metastases

Substance: PpIX-GFFVLK-EAIPMSIPPEVK [FTP-NPs]
- size change in PBS and FBS solutions within 168 h [1]: did not change significantly
- fluorescence signal of tumor tissue relative to NFTP-NPs group ([2]; 48 h after tail vein injection, ex vivo imaging): 7.1 fold
- duration of fluorescence signal in tumor tissues [2, 4]: up to 7 days
- liver and lung metastasis (bioluminescent signals, number of metastatic foci) [3]: weakened considerably and significantly lower
